# Laboratory results as given in paper doi:10.1101/2024.08.13.607785v1 (biorxiv, 2024).
# Columns and labels:
# [1] = target: T1, Discoidin domain-containing receptor 2 ; DDR2 ; Q16832 (Homo sapiens, UniProt Q16832); experiment: biochemical; parameters: species or system human cell line lysate
# T1 sequence (Q16832 1-855): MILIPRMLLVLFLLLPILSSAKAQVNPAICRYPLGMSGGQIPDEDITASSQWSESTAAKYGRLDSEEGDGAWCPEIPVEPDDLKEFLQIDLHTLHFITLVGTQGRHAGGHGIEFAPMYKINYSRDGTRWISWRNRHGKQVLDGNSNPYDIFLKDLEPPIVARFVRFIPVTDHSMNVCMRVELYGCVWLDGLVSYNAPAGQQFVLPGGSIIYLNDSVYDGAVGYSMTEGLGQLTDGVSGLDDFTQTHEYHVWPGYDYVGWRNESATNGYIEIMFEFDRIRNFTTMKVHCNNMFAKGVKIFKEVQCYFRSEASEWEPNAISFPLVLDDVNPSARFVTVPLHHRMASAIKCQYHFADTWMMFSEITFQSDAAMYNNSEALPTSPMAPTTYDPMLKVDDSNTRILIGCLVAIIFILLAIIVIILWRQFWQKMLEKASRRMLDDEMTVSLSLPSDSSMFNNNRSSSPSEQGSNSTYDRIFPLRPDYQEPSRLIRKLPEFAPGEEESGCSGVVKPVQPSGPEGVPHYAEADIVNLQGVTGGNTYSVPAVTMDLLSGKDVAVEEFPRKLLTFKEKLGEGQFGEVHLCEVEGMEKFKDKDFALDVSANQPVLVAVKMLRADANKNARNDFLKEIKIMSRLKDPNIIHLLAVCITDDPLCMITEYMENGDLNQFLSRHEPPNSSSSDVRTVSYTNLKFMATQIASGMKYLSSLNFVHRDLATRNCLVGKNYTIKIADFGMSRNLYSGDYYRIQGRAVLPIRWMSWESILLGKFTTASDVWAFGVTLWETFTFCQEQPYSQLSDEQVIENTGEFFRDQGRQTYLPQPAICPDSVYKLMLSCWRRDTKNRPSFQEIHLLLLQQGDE
# [2] = target: Epithelial discoidin domain-containing receptor 1 ; DDR1 ; Q08345 (Homo sapiens, UniProt Q08345); experiment: biochemical; parameters: species or system human cell line lysate
# [3] = target: T1, Discoidin domain-containing receptor 2 ; DDR2 ; Q16832; parameters: species or system mixed lysate of K562, MV4-11, THP-1, NCI-H1155; conditions: binder
# [4] = target: Integrin-linked protein kinase ; ILK ; Q13418 (Homo sapiens, UniProt Q13418); parameters: species or system mixed lysate of K562, MV4-11, THP-1, NCI-H1155; conditions: DIA-MS residual binding; binder
# [5] = target: LIM domain kinase 1 ; LIMK1 ; P53667 (Homo sapiens, UniProt P53667); parameters: species or system mixed lysate of K562, MV4-11, THP-1, NCI-H1155; conditions: DIA-MS residual binding; binder
# [6] = target: Mitogen-activated protein kinase 14 ; MAPK14-2 ; Q16539-2 (Homo sapiens, UniProt Q16539); parameters: species or system mixed lysate of K562, MV4-11, THP-1, NCI-H1155; conditions: DIA-MS residual binding; binder
# [7] = target: Mitogen-activated protein kinase kinase kinase kinase 5 ; MAP4K5 ; Q9Y4K4 (Homo sapiens, UniProt Q9Y4K4); parameters: species or system mixed lysate of K562, MV4-11, THP-1, NCI-H1155; conditions: DIA-MS residual binding; binder
# [8] = target: Phosphatidylinositol 4-kinase alpha ; PI4KA ; P42356 (Homo sapiens, UniProt P42356); parameters: species or system mixed lysate of K562, MV4-11, THP-1, NCI-H1155; conditions: DIA-MS residual binding; binder
# [9] = target: Tyrosine-protein kinase Fgr ; FGR ; P09769 (Homo sapiens, UniProt P09769); parameters: species or system mixed lysate of K562, MV4-11, THP-1, NCI-H1155; conditions: binder
# [10] = target: T2, Tyrosine-protein kinase Tec ; TEC ; P42680 (Homo sapiens, UniProt P42680); parameters: species or system mixed lysate of K562, MV4-11, THP-1, NCI-H1155; conditions: binder
# T2 sequence (P42680 1-631): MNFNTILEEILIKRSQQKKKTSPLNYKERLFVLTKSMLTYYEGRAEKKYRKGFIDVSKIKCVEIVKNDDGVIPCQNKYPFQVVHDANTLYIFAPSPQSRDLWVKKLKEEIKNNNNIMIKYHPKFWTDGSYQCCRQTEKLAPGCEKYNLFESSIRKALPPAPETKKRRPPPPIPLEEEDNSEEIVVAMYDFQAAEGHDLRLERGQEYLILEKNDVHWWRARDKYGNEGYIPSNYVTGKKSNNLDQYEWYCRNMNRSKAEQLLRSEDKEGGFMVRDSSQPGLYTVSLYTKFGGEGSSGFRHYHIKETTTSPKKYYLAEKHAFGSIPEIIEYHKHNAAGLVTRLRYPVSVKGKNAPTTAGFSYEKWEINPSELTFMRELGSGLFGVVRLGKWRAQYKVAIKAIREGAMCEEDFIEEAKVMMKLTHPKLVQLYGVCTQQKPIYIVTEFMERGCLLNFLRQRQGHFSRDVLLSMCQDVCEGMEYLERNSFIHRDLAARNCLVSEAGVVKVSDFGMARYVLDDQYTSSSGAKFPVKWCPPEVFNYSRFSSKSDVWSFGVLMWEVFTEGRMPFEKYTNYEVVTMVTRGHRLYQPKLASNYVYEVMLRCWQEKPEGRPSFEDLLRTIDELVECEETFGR
# Sequence of Integrin-linked protein kinase ; ILK ; Q13418 (Q13418 whole entry, the tested form may be a part): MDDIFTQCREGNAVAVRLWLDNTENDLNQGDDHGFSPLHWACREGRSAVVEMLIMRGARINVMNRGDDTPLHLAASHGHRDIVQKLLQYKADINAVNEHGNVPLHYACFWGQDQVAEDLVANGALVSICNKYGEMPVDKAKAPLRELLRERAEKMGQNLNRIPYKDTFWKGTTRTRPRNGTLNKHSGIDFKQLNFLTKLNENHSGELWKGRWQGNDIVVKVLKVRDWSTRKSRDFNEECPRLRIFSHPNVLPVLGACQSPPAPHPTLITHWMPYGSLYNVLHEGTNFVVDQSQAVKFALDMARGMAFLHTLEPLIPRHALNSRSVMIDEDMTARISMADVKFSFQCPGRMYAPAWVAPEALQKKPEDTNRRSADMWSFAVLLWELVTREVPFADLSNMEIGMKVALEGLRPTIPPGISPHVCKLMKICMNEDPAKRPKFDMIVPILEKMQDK
# Sequence of LIM domain kinase 1 ; LIMK1 ; P53667 (P53667 whole entry, the tested form may be a part): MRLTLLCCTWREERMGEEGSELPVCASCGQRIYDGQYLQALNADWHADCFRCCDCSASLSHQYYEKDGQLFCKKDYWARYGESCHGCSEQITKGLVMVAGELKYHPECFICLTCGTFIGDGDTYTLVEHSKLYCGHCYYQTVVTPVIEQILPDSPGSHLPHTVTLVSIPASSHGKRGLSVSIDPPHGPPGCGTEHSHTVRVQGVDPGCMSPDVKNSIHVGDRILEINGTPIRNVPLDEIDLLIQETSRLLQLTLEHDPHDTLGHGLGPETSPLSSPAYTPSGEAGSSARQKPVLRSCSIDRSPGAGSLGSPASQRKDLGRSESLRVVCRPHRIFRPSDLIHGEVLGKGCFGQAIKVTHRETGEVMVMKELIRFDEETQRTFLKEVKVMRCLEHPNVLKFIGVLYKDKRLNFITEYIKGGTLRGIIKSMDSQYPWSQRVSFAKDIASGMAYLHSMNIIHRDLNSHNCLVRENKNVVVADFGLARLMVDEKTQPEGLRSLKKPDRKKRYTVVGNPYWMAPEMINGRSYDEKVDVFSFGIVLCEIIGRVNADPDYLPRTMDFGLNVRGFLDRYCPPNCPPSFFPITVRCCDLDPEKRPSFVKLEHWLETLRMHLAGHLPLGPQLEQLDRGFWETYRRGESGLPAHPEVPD
# Sequence of Phosphatidylinositol 4-kinase alpha ; PI4KA ; P42356 (P42356 whole entry): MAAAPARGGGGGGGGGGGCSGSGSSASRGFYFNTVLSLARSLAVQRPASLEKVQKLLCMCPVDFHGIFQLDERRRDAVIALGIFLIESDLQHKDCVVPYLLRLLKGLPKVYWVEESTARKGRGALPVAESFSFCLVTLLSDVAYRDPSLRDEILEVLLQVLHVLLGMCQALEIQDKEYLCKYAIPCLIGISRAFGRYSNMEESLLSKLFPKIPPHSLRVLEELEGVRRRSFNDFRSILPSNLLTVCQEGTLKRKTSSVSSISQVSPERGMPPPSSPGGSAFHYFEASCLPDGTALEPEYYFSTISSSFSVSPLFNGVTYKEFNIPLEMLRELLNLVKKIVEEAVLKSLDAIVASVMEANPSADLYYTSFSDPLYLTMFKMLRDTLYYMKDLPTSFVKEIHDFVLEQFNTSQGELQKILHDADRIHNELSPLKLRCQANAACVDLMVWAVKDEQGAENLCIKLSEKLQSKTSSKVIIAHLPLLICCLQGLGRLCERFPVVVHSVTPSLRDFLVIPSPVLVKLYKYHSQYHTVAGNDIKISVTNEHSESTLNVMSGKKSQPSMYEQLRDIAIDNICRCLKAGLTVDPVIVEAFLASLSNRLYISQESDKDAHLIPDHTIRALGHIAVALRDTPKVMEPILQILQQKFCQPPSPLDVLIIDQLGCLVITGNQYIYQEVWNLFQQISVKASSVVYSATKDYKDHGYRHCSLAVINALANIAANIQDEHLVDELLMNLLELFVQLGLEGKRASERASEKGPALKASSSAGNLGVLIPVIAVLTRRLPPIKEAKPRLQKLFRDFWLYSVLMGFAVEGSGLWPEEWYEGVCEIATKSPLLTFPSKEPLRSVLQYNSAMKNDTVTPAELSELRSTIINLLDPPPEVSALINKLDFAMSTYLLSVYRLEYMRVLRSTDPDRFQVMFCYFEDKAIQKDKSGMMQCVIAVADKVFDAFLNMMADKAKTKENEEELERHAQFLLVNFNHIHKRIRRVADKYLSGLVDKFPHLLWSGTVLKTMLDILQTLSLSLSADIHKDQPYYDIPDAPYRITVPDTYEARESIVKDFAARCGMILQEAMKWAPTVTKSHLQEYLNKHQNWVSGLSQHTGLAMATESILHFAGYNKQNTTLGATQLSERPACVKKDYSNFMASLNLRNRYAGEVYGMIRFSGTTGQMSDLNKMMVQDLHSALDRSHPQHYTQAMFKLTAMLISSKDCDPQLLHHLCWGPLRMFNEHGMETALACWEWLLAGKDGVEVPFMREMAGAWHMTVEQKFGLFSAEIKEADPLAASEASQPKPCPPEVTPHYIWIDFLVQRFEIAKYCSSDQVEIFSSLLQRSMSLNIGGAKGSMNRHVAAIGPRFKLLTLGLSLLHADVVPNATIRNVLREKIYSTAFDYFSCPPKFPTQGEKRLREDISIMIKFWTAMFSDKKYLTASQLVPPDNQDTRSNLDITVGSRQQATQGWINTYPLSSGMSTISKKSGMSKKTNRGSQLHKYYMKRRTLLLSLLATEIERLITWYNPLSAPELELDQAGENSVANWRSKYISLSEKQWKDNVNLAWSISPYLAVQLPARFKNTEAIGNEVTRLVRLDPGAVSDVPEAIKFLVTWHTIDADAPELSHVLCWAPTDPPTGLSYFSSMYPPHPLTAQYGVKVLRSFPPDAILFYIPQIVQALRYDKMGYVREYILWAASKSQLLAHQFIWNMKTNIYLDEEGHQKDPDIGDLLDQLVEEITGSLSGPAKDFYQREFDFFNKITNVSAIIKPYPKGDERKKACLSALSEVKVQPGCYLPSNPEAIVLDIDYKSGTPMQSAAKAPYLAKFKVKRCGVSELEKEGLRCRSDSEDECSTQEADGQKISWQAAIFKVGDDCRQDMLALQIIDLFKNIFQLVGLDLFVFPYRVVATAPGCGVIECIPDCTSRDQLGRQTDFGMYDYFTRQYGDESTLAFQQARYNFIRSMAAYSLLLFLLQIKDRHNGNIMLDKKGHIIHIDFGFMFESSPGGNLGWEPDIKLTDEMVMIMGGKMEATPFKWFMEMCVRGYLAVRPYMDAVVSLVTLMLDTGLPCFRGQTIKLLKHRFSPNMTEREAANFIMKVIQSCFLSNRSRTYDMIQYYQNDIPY
# Sequence of Epithelial discoidin domain-containing receptor 1 ; DDR1 ; Q08345 (Q08345 whole entry, the tested form may be a part): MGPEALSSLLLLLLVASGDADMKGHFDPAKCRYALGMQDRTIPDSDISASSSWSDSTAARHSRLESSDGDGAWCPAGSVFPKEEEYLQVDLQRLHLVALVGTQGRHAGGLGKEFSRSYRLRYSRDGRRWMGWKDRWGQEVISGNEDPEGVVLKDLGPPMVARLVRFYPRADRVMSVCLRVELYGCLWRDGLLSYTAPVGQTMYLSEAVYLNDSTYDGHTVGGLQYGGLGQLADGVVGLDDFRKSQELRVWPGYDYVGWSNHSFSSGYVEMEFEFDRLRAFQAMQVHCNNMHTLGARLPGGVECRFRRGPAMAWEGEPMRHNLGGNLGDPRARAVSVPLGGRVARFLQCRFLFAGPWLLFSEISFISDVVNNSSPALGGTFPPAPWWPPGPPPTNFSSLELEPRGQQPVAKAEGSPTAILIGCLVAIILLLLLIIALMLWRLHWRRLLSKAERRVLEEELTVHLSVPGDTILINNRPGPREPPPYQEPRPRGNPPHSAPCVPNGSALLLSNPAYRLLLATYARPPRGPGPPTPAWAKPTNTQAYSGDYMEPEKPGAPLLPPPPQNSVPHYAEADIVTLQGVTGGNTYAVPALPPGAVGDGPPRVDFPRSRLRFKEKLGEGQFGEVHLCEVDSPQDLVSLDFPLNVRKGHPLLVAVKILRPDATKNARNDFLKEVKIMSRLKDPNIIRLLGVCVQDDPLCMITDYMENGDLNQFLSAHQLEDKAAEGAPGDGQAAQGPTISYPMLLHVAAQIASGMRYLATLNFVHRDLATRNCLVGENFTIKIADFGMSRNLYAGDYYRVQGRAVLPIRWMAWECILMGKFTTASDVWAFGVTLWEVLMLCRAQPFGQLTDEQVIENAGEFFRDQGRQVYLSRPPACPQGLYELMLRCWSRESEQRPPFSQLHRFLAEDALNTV
# Sequence of Tyrosine-protein kinase Fgr ; FGR ; P09769 (P09769 whole entry): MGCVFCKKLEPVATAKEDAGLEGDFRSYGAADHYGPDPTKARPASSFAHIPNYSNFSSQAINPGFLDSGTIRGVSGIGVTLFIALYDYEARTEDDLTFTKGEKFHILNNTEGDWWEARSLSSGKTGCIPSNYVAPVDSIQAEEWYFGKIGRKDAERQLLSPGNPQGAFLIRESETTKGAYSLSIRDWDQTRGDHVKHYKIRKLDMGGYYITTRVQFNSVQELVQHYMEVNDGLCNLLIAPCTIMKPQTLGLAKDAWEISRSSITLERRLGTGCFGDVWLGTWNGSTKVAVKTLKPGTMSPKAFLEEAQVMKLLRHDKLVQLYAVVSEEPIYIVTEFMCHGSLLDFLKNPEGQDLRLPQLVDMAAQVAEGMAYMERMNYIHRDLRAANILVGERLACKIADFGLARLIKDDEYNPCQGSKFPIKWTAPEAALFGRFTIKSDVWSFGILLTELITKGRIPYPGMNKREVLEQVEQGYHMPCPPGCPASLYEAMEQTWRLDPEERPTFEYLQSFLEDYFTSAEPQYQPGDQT
# Sequence of Mitogen-activated protein kinase 14 ; MAPK14-2 ; Q16539-2 (Q16539 whole entry): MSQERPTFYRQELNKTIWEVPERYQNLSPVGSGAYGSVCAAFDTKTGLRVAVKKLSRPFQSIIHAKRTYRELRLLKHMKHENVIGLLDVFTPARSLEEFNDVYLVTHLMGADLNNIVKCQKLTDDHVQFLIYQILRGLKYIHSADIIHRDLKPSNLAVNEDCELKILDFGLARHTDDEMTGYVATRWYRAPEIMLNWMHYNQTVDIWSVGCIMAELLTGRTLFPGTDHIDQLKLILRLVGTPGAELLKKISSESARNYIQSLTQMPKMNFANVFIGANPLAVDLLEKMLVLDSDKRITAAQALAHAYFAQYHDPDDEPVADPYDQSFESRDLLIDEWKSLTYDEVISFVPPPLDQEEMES
IC50 [1] [µM],IC50 [2] [µM],DIA-MS / % Intensity (30 µM/DMSO) [3] [%],DIA-MS / % Intensity (30 µM/DMSO) [4] [%],DIA-MS / % Intensity (30 µM/DMSO) [5] [%],DIA-MS / % Intensity (30 µM/DMSO) [6] [%],DIA-MS / % Intensity (30 µM/DMSO) [7] [%],DIA-MS / % Intensity (30 µM/DMSO) [8] [%],DIA-MS / % Intensity (30 µM/DMSO) [9] [%],DIA-MS / % Intensity (30 µM/DMSO) [10] [%],SMILES
> 10,> 10,–,–,–,–,–,–,–,–,COc1cc(F)ccc1-c1ncnc(Nc2cccc(C[S@](C)(=N)=O)c2)n1 [BAY-1143572]
–,–,5.824,38.96,33.27,35.75,28.36,31.23,0.4999,7.109,Cc1nc(Nc2ncc(C(=O)Nc3c(C)cccc3Cl)s2)cc(N2CCN(CCO)CC2)n1 [dasatinib]
